Data taken from patent publication US7528128B2, “Pyrrolo[2,1-C][1,4]benzodiazepine hybrids and a process for the preparation thereof” (Council of Scientific & Industrial Research, priority 2006, dated 2009).

How the values were obtained:
[1] = system: Hop62 (lung); test: In vitro cytotoxicity, 48 h continuous drug exposure; format: cell-based, human; settings: for Activity status in terms of IC50 value: Hop62, Lung; for cell growth by %: Hop62, relative to untreated control cells
Description: (§1) In vitro evaluation of cytotoxic activity. The compound 5a, 5b, 5g, 5i and 5j were evaluated for in vitro anticancer activity against nine human tumour cells derived from six cancer types (colon, prostate, oral, lung, cervix and breast cancer) as shown in Table 3. […] Compounds 5a, 5b, 5g, 5i and 5j have been evaluated for their in vitro cytotoxicity in selected human cancer cell lines of colon (Colo205), lung (Hop-62), cervix (SiHa), prostate (DU145, PC3), oral (DWD, HT1080), and breast (MCF7, Zr-75-1) origin. A protocol of 48 h continuous drug exposure has been used and an […] has been used to estimate cell viability or growth. […] Compound 5a, Colo205 cell growth by 83%, DU145 cell growth by 84%, DWD cell growth by 70%, Hop62 cell growth by 87%, HT1080 cell growth by 80%, MCF7 cell growth by 73%, PC3 cell growth by 91%, SiHa cell growth by 67%, Zr-75-1 cell growth by 76%. Compound 5b, Colo205 cell growth by 20%, DU145 cell growth by 64%, DWD cell growth by 70%, Hop62 cell growth by 78%, HT1080 cell growth by 72%, MCF7 cell growth by 69%, PC3 cell growth by 72%, SiHa cell growth by 20%, Zr-75-1 cell growth by 20%. Compound 5g, Colo205 cell growth by 50%, DU145 cell growth by 20%, DWD cell growth by 94%, Hop62 cell growth by 84%, HT1080 cell growth by 94%, MCF7 cell growth by 71%, PC3 cell growth by 86%, SiHa cell growth by 74%, Zr-75-1 cell growth by 72%. Compound 5i, DU145 cell growth by 42%, Hop62 cell growth by 60%, HT1080 cell growth by 70%, Compound 5j, Colo205 cell growth by 44%, DU145 cell growth by 57%, DWD cell growth by 65%, Hop62 cell growth by 53%, HT1080 cell growth by 71%, PC3 cell growth by 81%, SiHa cell growth by 77%.

[2] = system: DU145 (prostate); test: as above; format: cell-based, human; settings: for Activity status in terms of IC50 value: DU145, Prostate; for cell growth by %: DU145, relative to untreated control cells
Description: as §1

[3] = system: Colo205 (colon); test: as above; format: cell-based, human; settings: for Activity status in terms of IC50 value: Colo205, Colon; for cell growth by %: Colo205, relative to untreated control cells
Description: as §1

[4] = system: PC3 (prostate); test: as above; format: cell-based, human; settings: for Activity status in terms of IC50 value: PC3, Prostate; for cell growth by %: PC3, relative to untreated control cells
Description: as §1

[5] = system: SiHa (cervix); test: as above; format: cell-based, human; settings: for Activity status in terms of IC50 value: Cervix; for cell growth by %: relative to untreated control cells
Description: as §1

[6] = system: Zr-75-1 (breast); test: as above; format: cell-based, human; settings: for Activity status in terms of IC50 value: Zr-75-1, Breast; for cell growth by %: Zr-75-1, relative to untreated control cells
Description: as §1

[7] = system: HT1080 (oral); test: as above; format: cell-based, human; settings: for Activity status in terms of IC50 value: HT1080, Oral; for cell growth by %: HT1080, relative to untreated control cells
Description: as §1

[8] = system: DWD (oral); test: as above; format: cell-based, human; settings: for Activity status in terms of IC50 value: Oral; for cell growth by %: relative to untreated control cells
Description: as §1

[9] = system: MCF7 (breast); test: as above; format: cell-based, human; settings: for Activity status in terms of IC50 value: MCF7, Breast; for cell growth by %: MCF7, relative to untreated control cells
Description: as §1

[10] = system: duplex-form calf thymus DNA (CT-DNA); test: Thermal denaturation studies with CT-DNA; format: binding; settings: for ΔTm after incubation at 37° C. for 0 h / ΔTm after incubation at 37° C. for 18 h / ΔTm after incubation at 37° C. for 36 h: [PBD]:[DNA] 1:5, CT-DNA 100 μM, ligand 20 μM; for ΔTm after incubation at 37° C. for 0 h: pH 7.00, 0 h; for ΔTm after incubation at 37° C. for 18 h: pH 7.00, 18 h; for ΔTm after incubation at 37° C. for 36 h: pH 7.00, 36 h; for course of ΔTm over 0 hr, 18 hr and 36 hr (in words): incubation at 37° C.
Description: Compounds were subjected to thermal denaturation studies with duplex-form calf thymus DNA (CT-DNA) using an adaptation of a reported procedure. Working solutions in aqueous buffer (10 mM NaH2PO4/Na2HPO4, 1 mM Na2EDTA, pH 7.00+0.01) containing CT-DNA (100 μm in phosphate) and the PBD (20 μm) were prepared by addition of concentrated PBD solutions in DMSO to obtain a fixed [PBD]/[DNA] molar ratio of 1:5. The DNA-PBD solutions were incubated at 37° C. for 0, 18, and 36 h prior to analysis. Samples were monitored at 260 nm using a Beckman DU-7400 spectrophotometer fitted with high performance temperature controller, and heating was applied at 1° C. min−1 in the 40-90° C. range. DNA helix coil transition temperatures (Tm) were obtained from the maxima in the (dA260)/dT derivative plots. Results are given as the mean ±standard deviation from three determinations and are corrected for the effects of DMSO co-solvent using a linear correction term. Drug-induced alterations in DNA melting behaviour are given by: ΔTm=Tm(DNA+PBD)−Tm (DNA alone), where the Tm value for the PBD-free CT-DNA is 69.0±0.01.

[11] = system: selected human cancer cell lines; test: In vitro cytotoxicity in selected human cancer cell lines (overall statements); format: cell-based; settings: Table 3
Description: as §1

[12] = system: sixty human tumour cells; test: NCI in vitro anticancer screen, SRB protein assay, mean graph midpoints; format: cell-based; settings: human tumour cell lines, 48 h continuous drug exposure
Description: Biological Activity: some of in vitro biological activity studies were carried out at the National Cancer Institute, Maryland, USA.
5e was evaluated for in vitro anticancer activity against sixty human tumour cells derived from nine cancer types (leukemia, non-small-cell lung, colon, CNS, melanoma, ovarian, prostate, and breast cancer) as shown in (Table 1 and 2). For the compound, dose response curves for each cell line were measured at a minimum of five concentrations at 10 fold dilutions. A protocol of 48 h continuous drug exposure was used and a sulforhodamine B (SRB) protein assay was used to estimate cell viability or growth. The concentration causing 50% cell growth inhibition (GI50), total cell growth inhibition (TGI 0% growth) and 50% cell death (LC50, −50% growth) compared with the control was calculated.

Compound	Activity status in terms of IC50 value [1] [µg/mL]	cell growth by % [1] [%]	Activity status in terms of IC50 value [2] [µg/mL]	cell growth by % [2] [%]	Activity status in terms of IC50 value [3] [µg/mL]	cell growth by % [3] [%]	Activity status in terms of IC50 value [4] [µg/mL]	cell growth by % [4] [%]	Activity status in terms of IC50 value [5] [µg/mL]	cell growth by % [5] [%]	Activity status in terms of IC50 value [6] [µg/mL]	cell growth by % [6] [%]	Activity status in terms of IC50 value [7] [µg/mL]	cell growth by % [7] [%]	Activity status in terms of IC50 value [8] [µg/mL]	cell growth by % [8] [%]	Activity status in terms of IC50 value [9] [µg/mL]	cell growth by % [9] [%]	ΔTm after incubation at 37° C. for 0 h [10] [°C]	ΔTm after incubation at 37° C. for 18 h [10] [°C]	further results
7-methoxy-8-{3-[2-benzoyl-(4,6-dichlorophenyloxy)propoxy]}-(11aS)-1,2,3,11a-tetra hydro-5H-pyrrolo[2,1-c][1,4]benzodiazepine-5-one [Compound 5g]	16	84	80	20	50	50	14	86	26	74	28	72	6	94	6	94	29	71	1.4	1.6	ΔTm after incubation at 37° C. for 36 h [10]: 2.3 °C; course of ΔTm over 0 hr, 18 hr and 36 hr (in words) [10]: gradually increased; cytotoxicity against some cancer cell lines (in words) [11]: promising cytotoxicity
COc1cc2c(cc1OCCCCCOc1c(C)cc(Cl)cc1C(=O)c1ccccc1)N=C[C@@H]1CCCN1C2=O [Compound 5f, 7-methoxy-8-{3-[2-benzoyl-(4-chloro-6-methylphenyloxy)pentoxy]}-(11aS)-1,2,3,11a-tetrahydro-5H-pyrrolo[2,1-c][1,4]benzodiazepine-5-one]	–	–	–	–	–	–	–	–	–	–	–	–	–	–	–	–	–	–	–	–	Log10GI50 mean graph midpoint (MG_MID) [12]: −6.47; Log10LC50 mean graph midpoint (MG_MID) [12]: −4.89; Log10TGI mean graph midpoint (MG_MID) [12]: −5.24
COc1cc2c(cc1OCCCCOc1ccc(Cl)cc1C(=O)c1ccccc1)N=C[C@@H]1CCCN1C2=O [Compound 5b, 7-methoxy-8-{4-[2-benzoyl-(4-chlorophenyloxy)butoxy]}-(11aS)-1,2,3,11a-tetrahydro-5H-pyrrolo[2,1-c][1,4]benzodiazepine-5-one]	22	78	35	64	32	20	28	72	>80	20	>80	20	28	72	30	70	31	69	1.5	2.1	ΔTm after incubation at 37° C. for 36 h [10]: 2.6 °C; course of ΔTm over 0 hr, 18 hr and 36 hr (in words) [10]: gradually increased; cytotoxicity against some cancer cell lines (in words) [11]: promising cytotoxicity
